# Measurements as given in patent US20040072907A1, “Antipicornaviral compounds, compositions containing them, and methods for their use” (priority 1997, published 2004).
# Like-named read-outs stand apart in the source and are kept apart here.
# Legend:
# [1] = system: HI-HeLa cells; assay: Cytotoxicity in mock-infected HI-HeLa cells (XTT, antirhinoviral assay); type: cell-based
# Protocol: (§1) In the Cell Protection Assay, the ability of compounds to protect cells against HRV infection was measured by the XTT dye reduction method. This method is described in Weislow, O. S., Kiser, R., Fine, D. L., Bader, J., Shoemaker, R. H., Boyd, M. R., J. Natl. Cancer Inst. 1989, 81, 577-586, the disclosure of which is incorporated herein by reference.
# (§2) Infected or mock-infected cells were resuspended at 8×10^5 cells per mL and incubated with appropriate concentrations of compounds of formula I. Two days later, XTT/PMS was added to test plates, and the amount of formazan produced was quantified spectrophotometrically at 450/650 nm. […] The therapeutic index (TI) was calculated by dividing the CC50 by the EC50.
# HRV stocks were propagated, and viral assays were performed in HI-HeLa cells (ATCC). Cells were grown in Minimal Essential Medium, available from Life Technologies, with 10% fetal bovine serum.
# [2] = target: T1, Recombinant Rhinovirus 3C protease serotype 2 (Human rhinovirus 2, UniProt P04936); type: biochemical
# T1 construct: Recombinant Rhinovirus 3C proteases from serotypes 14, 16, and 2; made in house
# [3] = target: T2, Recombinant Rhinovirus 3C protease serotype 14 (Human rhinovirus 14, UniProt P03303); assay: biochemical
# T2 construct: Recombinant Rhinovirus 3C proteases from serotypes 14, 16, and 2; made in house
# [4] = target: Recombinant Rhinovirus 3C protease serotype 16 (Human rhinovirus 16, UniProt Q82122); type: biochemical
# Protocol: Stock solutions (50 mM, in DMSO) of various compounds were prepared; dilutions were in the same solvent. […] Assays contained 2% DMSO, 50 mM tris pH 7.6, 1 mM EDTA, a compound at the indicated concentrations, approximately 1 μM substrate, and 50-100 nM protease. […] The kobs/I values were obtained from reactions initiated by addition of enzyme rather than substrate. RVP activity is measured in the fluorescence resonance energy transfer assay. […] In the uncleavaed peptide, the EDANS fluorescence was quenched by the proximal DABCYL moiety. When the peptide was cleaved, the quenching was relieved, and activity was measured as an increase in fluorescence signal.
# In the above table, all data are for RVP serotype-14 unless otherwise noted in parentheses. All strains of human rhinovirus (HRV) were purchased from American Type Culture Collection (ATCC) except for serotype 14, which was produced from the infectious cDNA clone constructed and supplied to Applicants by Dr. Robert Rueckert at the Institute for Molecular Virology, University of Wisconsin, Madison, Wis. The column designated INHIB represents the percent inhibition at 10 minute preincubation with 50 nM RVP prior to addition of substrate. The data in the column designated kobs/I was measured from progress curves enzyme start experiments.
# [5] = system: HRV serotype 10; assay: Antirhinoviral HI-HeLa cell culture assay (XTT cell protection), HRV-10; type: cell-based, human rhinovirus; details: HRV serotype 10, HI-HeLa cells
# Protocol: as §1, §2
# (§3) All strains of human rhinovirus (HRV) for use in this assay were purchased from American Type Culture Collection (ATCC) except for HRV serotype-14, which was produced from the infectious cDNA clone constructed and supplied to Applicants by Dr. Robert Rueckert at the Institute for Molecular Virology, University of Wisconsin, Madison, Wis. HRV stocks were propagated, and viral assays were performed in HI-HeLa cells (ATCC). Cells were grown in Minimal Essential Medium, available from Life Technologies, with 10% fetal bovine serum.
# (§4) The compounds were tested against control compounds WIN 51711, WIN 52084, and WIN 54954, all obtained from Sterling-Winthrop Pharmaceuticals, and control compound Pirodavir, obtained from Janssen Pharmaceuticals. Antiviral data obtained for the test compounds are shown in Table 2 where all data are for HRV serotype-14 unless otherwise noted in parentheses.
# [6] = system: HRV serotype 89; assay: Antirhinoviral HI-HeLa cell culture assay (XTT cell protection), HRV-89; type: cell-based, human rhinovirus; details: HRV serotype 89, HI-HeLa cells
# Protocol: as §1, §2, §3, §4
# [7] = system: HRV serotype 39; assay: Antirhinoviral HI-HeLa cell culture assay (XTT cell protection), HRV-39; type: cell-based, human rhinovirus; details: HRV serotype 39, HI-HeLa cells
# Protocol: as §1, §2, §3, §4
# [8] = system: HRV serotype-14; assay: Antirhinoviral HI-HeLa cell culture assay (XTT cell protection), HRV-14; type: cell-based, human rhinovirus; details: HRV serotype-14, HI-HeLa cells, m.o.i. 0.13, two days, XTT; read-out: EC50
# Protocol: as §1, §2, §3, §4
# [9] = mock-infected HI-HeLa cells, line for HRV serotype-14, read-out: CC50
# [10] = mock-infected HI-HeLa cells, line for HRV serotype 1A, read-out: CC50
# [11] = mock-infected HI-HeLa cells, line for HRV serotype 2, read-out: CC50
# [12] = mock-infected HI-HeLa cells, line for HRV serotype 10, read-out: CC50
# [13] = mock-infected HI-HeLa cells, line for HRV serotype 16, read-out: CC50
# [14] = mock-infected HI-HeLa cells, line for HRV serotype 39, read-out: CC50
# [15] = RVP serotype-14, progress curves, enzyme start experiments
# T2 sequence (P03303 1538-1719): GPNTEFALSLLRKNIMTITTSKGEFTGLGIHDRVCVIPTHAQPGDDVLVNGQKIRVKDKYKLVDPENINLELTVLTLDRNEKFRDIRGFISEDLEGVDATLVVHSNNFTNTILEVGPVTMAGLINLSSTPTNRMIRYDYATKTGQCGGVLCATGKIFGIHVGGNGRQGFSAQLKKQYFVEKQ
# T1 sequence (P04936 1508-1690): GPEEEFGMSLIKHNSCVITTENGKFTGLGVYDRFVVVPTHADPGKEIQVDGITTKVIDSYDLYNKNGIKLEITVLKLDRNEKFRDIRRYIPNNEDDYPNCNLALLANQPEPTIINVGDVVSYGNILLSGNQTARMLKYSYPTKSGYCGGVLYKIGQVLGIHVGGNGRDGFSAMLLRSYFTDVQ
# Recombinant Rhinovirus 3C protease serotype 16, sequence (Q82122 1511-1693): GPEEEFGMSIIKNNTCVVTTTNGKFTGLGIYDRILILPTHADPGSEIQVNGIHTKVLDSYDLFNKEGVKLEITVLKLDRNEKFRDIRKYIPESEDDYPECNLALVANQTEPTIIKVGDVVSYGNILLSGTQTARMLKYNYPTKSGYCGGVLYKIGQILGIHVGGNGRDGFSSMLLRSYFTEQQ
Compound,"CC50 [1, 9]",kobs/I [3],"CC50 [1, 11]",EC50 [8],"kobs/I [3, 15]",also measured
Ethyl-3-(CyPentylSCO-L-CyhexΨ[COCH2]-L-(p-F)Phe-L-Gln)-E-Propenoate [Compound 24],> 3000 nM,,,,,
"CCOC(=O)/C=C/[C@H](CCC(N)=O)NC(=O)[C@@H](CC(=O)[C@H](CC(C)C)NC(=O)SC1CCCC1)Cc1ccccc1 [Compound 8, Ethyl-3-(CyPentylSCO-L-LeuΨ[COCH2]-L-Phe-L-Gln)-E-Propenoate]",,"55,700 M^−1sec^−1",,,,"kobs/I [2]: 7,000 M^−1sec^−1; kobs/I ([2]; RVP serotype 2, progress curves, enzyme start experiments): 7,000 M^−1sec^−1; kobs/I [4]: 14,200 M^−1sec^−1"
"CCOC(=O)/C=C/C(CCC(N)=O)NC(=O)C(CC(=O)C(NC(=O)SC1CCCC1)C(C)C)Cc1ccc(C(F)(F)F)cc1 [Compound 16, Ethyl-3-(CyPentylSCO-L-ValΨ[COCH2]-L-(p-CF3)Phe-L-Gln)-E-Propenoate]",> 3000 nM,,> 3000 nM,50 nM,,"CC50 [1, 10]: > 3000 nM; CC50 [1, 12]: > 3000 nM; CC50 [1, 13]: > 3000 nM; CC50 [1, 14]: > 3000 nM; CC50 ([1]; mock-infected HI-HeLa cells, line for HRV serotype 89, read-out: CC50): > 3000 nM; EC50 [5]: 150 nM; EC50 [6]: 80 nM; EC50 [7]: 200 nM"
"CCOC(=O)/C=C/C(CCC(N)=O)NC(=O)C(CC(=O)C(Cc1ccccc1)NC(=O)SC1CCCC1)Cc1ccc(F)cc1 [Compound 18, Ethyl-3-(CyPentylSCO-L-PheΨ[COCH2]-L-(p-F)Phe-L-Gln)-E-Propenoate]",> 3000 nM,,,480 nM,"127,400 M^−1sec^−1",
"Cc1cc(CCCCCCCOc2ccc(C3=N[C@@H](C)CO3)cc2)on1 [WIN 52084, reference compound]",> 10000 nM,,,70 nM,,
"CCOC(=O)/C=C/C(CCC(N)=O)NC(=O)C(CC(=O)C(NC(=O)SC1CCCC1)C(C)C)Cc1ccc(C)cc1 [Compound 11, Ethyl-3-(CyPentylSCO-L-ValΨ[COCH2]-L-(p-CH3)Phe-L-Gln)-E-Propenoate]",,"850,000 M^−1sec^−1",> 3000 nM,,,"CC50 [1, 10]: > 3000 nM; CC50 [1, 12]: > 3000 nM; CC50 [1, 13]: > 3000 nM; CC50 [1, 14]: > 3000 nM"
"CCOC(=O)/C=C/[C@H](CCC(N)=O)NC(=O)[C@@H](CC(=O)[C@@H](NC(=O)SCC)C(C)C)Cc1ccccc1 [Compound 4, Ethyl-3-(EtSCO-L-ValΨ[COCH2]-L-Phe-L-Gln)-E-Propenoate]",> 320000 nM,"180,000 M^−1sec^−1",,,,"kobs/I [2]: 17,800 M^−1sec^−1; kobs/I [4]: 34,600 M^−1sec^−1"
"CCOC(=O)/C=C/[C@H](CCC(N)=O)NC(=O)[C@@H](CC(=O)[C@@H](NC(=O)SCC)C(C)C)Cc1ccc(C)cc1 [Compound 10, Ethyl-3-(EtSCO-L-ValΨ[COCH2]-L-(p-CH3)Phe-L-Gln)-E-Propenoate]",,"440,000 M^−1sec^−1",> 1000 nM,,,
CCOC(=O)/C=C/C(CCC(N)=O)NC(=O)C(CC(=O)C(NC(=O)CC1CCCC1)C(C)C)Cc1ccc(C)cc1 (stereo not drawn) [Compound 23],,,,20900 nM,"36,500 M^−1sec^−1",CC50 [1]: > 10000 nM
"CCOC(=O)/C=C/C(CCC(N)=O)NC(=O)C(CC(=O)C(Cc1ccccc1)NC(=O)SC1CCCC1)Cc1ccc(C)cc1 [Compound 12, Ethyl-3-(CyPentylSCO-L-PheΨ[COCH2]-L-(p-CH3)Phe-L-Gln)-E-Propenoate]",> 1000 nM,,,140 nM,"404,000 M^−1sec^−1",
